Measurements: patent US10345292B2, “Mammalian cell lines expressing functional nematode acetylcholine receptors and use thereof for high-throughput screening assays” (priority 2014, dated 2019)
Like-named read-outs stand apart in the source and are kept apart here.

Legend:
[1] = molecular target: T1, Hco ACR-16/hRIC3 cell line (Haemonchus contortus, UniProt A9Y2C3); experiment: Ca2+ measurement in 384-well plate format on FDSS6000 (Fluo-4AM); assay type: cell-based
T1 sequence (A9Y2C3 1-494): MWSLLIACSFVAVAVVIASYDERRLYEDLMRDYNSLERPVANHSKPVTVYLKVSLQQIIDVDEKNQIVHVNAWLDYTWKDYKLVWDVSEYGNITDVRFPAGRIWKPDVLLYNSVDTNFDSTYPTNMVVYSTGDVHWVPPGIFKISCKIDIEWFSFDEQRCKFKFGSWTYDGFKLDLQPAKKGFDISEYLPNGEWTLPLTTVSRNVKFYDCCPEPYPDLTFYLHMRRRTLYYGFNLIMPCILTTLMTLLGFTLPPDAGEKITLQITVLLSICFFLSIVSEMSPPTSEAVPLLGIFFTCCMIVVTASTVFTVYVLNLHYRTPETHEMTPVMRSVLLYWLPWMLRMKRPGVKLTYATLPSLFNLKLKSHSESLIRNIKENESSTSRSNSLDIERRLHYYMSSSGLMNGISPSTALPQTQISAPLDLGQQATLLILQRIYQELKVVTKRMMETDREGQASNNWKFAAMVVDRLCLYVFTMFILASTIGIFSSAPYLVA
T1 sequence (Q7Z5B4 29-369 partner): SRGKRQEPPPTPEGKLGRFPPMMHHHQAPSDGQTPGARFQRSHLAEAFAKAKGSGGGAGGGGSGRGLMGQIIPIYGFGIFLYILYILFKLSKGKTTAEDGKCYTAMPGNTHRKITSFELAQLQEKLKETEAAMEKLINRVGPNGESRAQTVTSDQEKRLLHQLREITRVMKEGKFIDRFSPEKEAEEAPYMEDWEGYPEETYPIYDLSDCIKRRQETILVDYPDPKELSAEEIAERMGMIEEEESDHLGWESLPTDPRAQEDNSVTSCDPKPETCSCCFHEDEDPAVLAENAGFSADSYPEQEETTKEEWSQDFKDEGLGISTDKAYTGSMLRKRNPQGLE

[2] = molecular target: T2, Hco ACR-16/Hco RIC3 stable cell line (Haemonchus contortus, UniProt A9Y2C3); experiment: as above; assay type: cell-based
T2 sequence (A9Y2C3 1-494): T1 sequence (A9Y2C3 1-494)

[3] = system: Dim ACR-16/Dim RIC3 stable cell line; experiment: as above; assay type: cell-based, Dirofilaria immitis
[4] = system: Hco ACR-16/hRIC3 stable cell line (Flp-In-293-Hco ACR-16 hRic3); assay type: cell-based, Haemonchus contortus; design: AUC, Mean / AUC, Median: unit not given beside the values

CC(=O)OCC[N+](C)(C)C [Acetylcholine]
EC50 [1]: 480 nM

Clc1ccc(C2CC3CCC2N3)cn1 (stereo not drawn) [Epibatidine]
EC50 [2]: 5 nM | Signal amplitude with 10 μM PNU120596 + 300 nM epibatidine application ([2]; 24 h @ 37° C.): 680 RFU | Signal amplitude with 10 μM PNU120596 + 300 nM epibatidine application ([2]; 24 h @ 37° C. + 24 h @ 30° C.): 1601 RFU | EC50 [1]: 6 nM | Signal amplitude with 10 μM PNU120596 + 300 nM epibatidine application ([1]; 24 h @ 37° C.): 1503 RFU | Signal amplitude with 10 μM PNU120596 + 300 nM epibatidine application ([1]; 24 h @ 37° C. + 24 h @ 30° C.): 2160 RFU | Signal amplitude with 10 μM PNU120596 + 300 nM epibatidine application [3]: 450 RFU | EC50 ([3]; read-out: EC50 (FIG. 10, FIG. 11)): 10 nM | EC50 ([3]; read-out: EC50 value): 5 nM | AUC, Mean [4]: 271.25 | AUC, Median [4]: 253.67 | Ratio, Mean [4]: 2.51 | Ratio, Median [4]: 2.15 | Rmax, Mean [4]: 2.62 | Rmax, Median [4]: 2.34 | Rmin, Mean [4]: 1.02 | Rmin, Median [4]: 1.04

CN1CCCC1c1cccnc1 (stereo not drawn) [Nicotine]
EC50 [1]: 200 nM | EC50 ([3]; read-out: EC50 (FIG. 10, FIG. 11), orthosteric reference agonist, concentration response curve): 350 nM | EC50 ([3]; read-out: EC50 value, Revealed by co-application of PNU-120956): 400 nM

COc1cc(OC)c(NC(=O)Nc2cc(C)on2)cc1Cl [PNU-120956]
EC50 ([2]; Revealed by co-application of EC100 orthosteric reference agonist, read-out: EC50 value): 1400 nM | EC50 ([1]; four-parameter logistic fit, cell line not named in legend, read-out: XC50 from concentration-response curve (FIG. 8)): 160 nM | EC50 ([3]; allosteric modulator response curve, read-out: EC50 (FIG. 12)): 2400 nM
